What all share (test): DTP human tumour cell line panel, 48 h
The subject of assay [1] is DLD-1.
The test system of assay [2] is DMS-273.
Assay [3] relates to HOP-18.
Assay [4] relates to DMS-114.
Assay [5] concerns RXF 631.
The test system of assay [6] is M19-MEL.
Assay [7] deals with SNB-78.
Assay [8] deals with LXFL 529.
Assay [9] deals with XF498.

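Five concentrations, 48 hours, 96-well plates. At the GI50, growth is halved.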 Calls of active or inactive are those of the source. No stated cut-off is given here; in the data, active = GI50 up to about 1.1 µM and inactive = higher. Bounds are passed on as bounds.

One may read the GI50 as the concentration giving 50% growth inhibition. `O=C1C=C(Nc2cc(Cl)ccc2Cl)c2ccccc2C1=O`: the GI50 in [1] was 45.3 µM (inactive); in assay [2], 21.3 µM (inactive); in assay [3] it was 22.6 µM (inactive); in [4] it was 25.5 µM (inactive); in assay [5], > 100 µM (inactive); in assay [6], 15.7 µM (inactive). In addition, in assay [7], the GI50 was > 100 µM (inactive).

Turning to `COC12C=CC(CC1)c1c(O)ccc(O)c12` (configuration not stated), the GI50 in [1] is 50.4 µM (inactive); in assay [2], 46 µM (inactive); in [3], > 100 µM (inactive); in [4] it was 47.1 µM (inactive); in assay [8], 25.4 µM (inactive); in assay [6], 22.5 µM (inactive). Besides, the values for the GI50 in assay [7] and in [9] were 49.2 µM (inactive) and 19.7 µM (inactive), respectively.

For the compound `COc1cc(C(C#N)NNC(=O)Cc2ccccc2)cc(OC)c1OC` (configuration not stated), the GI50 in assay [1] was > 100 µM (inactive); in [2] it was > 100 µM (inactive); in assay [3] it was > 100 µM (inactive); in assay [4] it was 99.1 µM (inactive); in [8], > 100 µM (inactive); in assay [6], > 100 µM (inactive). Besides, the GI50 in [7] is > 100 µM (inactive).

With `[O-][Cl+3]([O-])([O-])[O-].c1ccc(-c2[o+]c(-c3ccccc3)c(-c3ccccc3)c(-c3ccccc3)c2-c2ccccc2)cc1`, the GI50 in assay [1], in assay [2], in assay [3], in assay [5], in assay [8] and in assay [6] was > 100 µM (inactive) in each case. Besides, the GI50 in assay [7] was > 100 µM (inactive).

`N#CCCN(CCC#N)c1ccc(/C=C2\N=C(c3cc([N+](=O)[O-])ccc3Cl)OC2=O)cc1`: the GI50 in assay [2] was > 100 µM (inactive); in assay [4], 25.4 µM (inactive); in [8] it was 18.1 µM (inactive); in assay [6], 20.5 µM (inactive); in assay [9] it was 35.4 µM (inactive).

On to `C=CC/N=C1\N=C(C)C(C(=O)OCC)S1` (configuration not stated), for which the GI50 in assay [1], in assay [2], in assay [3], in assay [4], in [5] and in [8] was > 100 µM (inactive) in each case. Besides, the GI50 in assay [7] and in assay [9] was > 100 µM (inactive) each time.

On to `CC1(C)CC(/C=C2/OC(=O)c3ccccc32)=C(C#N)C(=O)O1`, for which the GI50 in assay [1], in assay [2], in assay [5], in [8], in assay [6] and in [7] was > 100 µM (inactive) in each case. Further, the GI50 in assay [9] was > 100 µM (inactive).

For the compound `O=C(O)C1=C(Cl)c2ccccc2S1(=O)=O`, the GI50 in assay [1], in assay [4], in assay [5], in [8], in assay [6] and in assay [7] was > 100 µM (inactive) each time. In assay [9], the GI50 was > 100 µM (inactive).

Consider `CC(=O)Oc1cc(OC(C)=O)c(OC(C)=O)c2c1CC1C(=O)C3(CCc4ccccc43)C(=O)C1C2` (configuration not stated), for which the GI50 was 14.2 µM (inactive) in assay [1]; 18.1 µM (inactive) in assay [2]; 28.5 µM (inactive) in assay [3]; 11.7 µM (inactive) in [4]; 14.4 µM (inactive) in assay [8]; 15.7 µM (inactive) in assay [6]. In addition, the GI50 in [7] is 23.1 µM (inactive); in assay [9], 14.7 µM (inactive).

`Cc1ccc(CC(C)N)cc1` (configuration not stated): the GI50 in assay [1], in assay [2], in assay [3], in assay [4], in assay [5] and in assay [8] was > 100 µM (inactive) each time. Further, the GI50 in assay [7] is > 100 µM (inactive).

As to `CN(Cc1ccccc1)C1(N(C)Cc2ccccc2)CC1`, the GI50 in [1], in assay [2], in assay [3], in assay [4], in [8] and in [6] was > 100 µM (inactive) in each case. Moreover, the GI50 in assay [7] and in [9] was > 100 µM (inactive) throughout.

As to `CC(C)(c1ccc(Oc2ccc(C#N)c(C#N)c2)cc1)c1ccc(Oc2ccc(C#N)c(C#N)c2)cc1`, the GI50 in assay [1], in [3], in assay [4], in [5], in assay [8] and in assay [6] was > 10 µM (inactive) each time. For the same compound, the GI50 in assay [7] and in assay [9] was > 10 µM (inactive) in each case.

With `O=C(O)CCCc1cc2c(s1)-c1cccc3cccc-2c13`, the GI50 in assay [1] was 39 µM (inactive); in [2], 37.8 µM (inactive); in assay [8] it was 35 µM (inactive); in [7] it was 27.6 µM (inactive); in [9], 36.6 µM (inactive).

On to `CC(C)N(C(=O)C12CC3CC(CC(C3)C1)C2)C(C)C`, for which the GI50 in assay [1], in [2], in [3], in [4], in assay [8] and in [6] was > 50 µM (inactive) in each case. Also, the GI50 in assay [7] is > 50 µM (inactive).

On to `CC/C(CC(=O)CCC(=O)Nc1ccccc1[N+](=O)[O-])=N/NC(=O)C[n+]1ccccc1`, for which the GI50 in [2], in assay [3], in [5], in assay [8], in assay [6] and in assay [7] was > 100 µM (inactive) throughout.

Take `CN(C)C(=S)/N=c1\ssc(=S)n1Cc1ccccc1`: the GI50 in assay [1] was 0.348 µM (active); in assay [2] it was 0.25 µM (active); in assay [3] it was 2.22 µM (inactive); in assay [4], 0.201 µM (active); in assay [8], 0.459 µM (active); in assay [6], 0.318 µM (active). Moreover, the results for the GI50 in assay [7] and in assay [9] were 0.8 µM (active) and 0.21 µM (active), respectively.

On to `CC(C)(C)c1cc([Si](C)(C)C)c(C#N)c([Si](C)(C)C)c1`, for which the GI50 is > 100 µM (inactive) in assay [1]; 49.1 µM (inactive) in assay [2]; > 100 µM (inactive) in assay [3]; 33.8 µM (inactive) in assay [4]; > 100 µM (inactive) in [8]; 43.2 µM (inactive) in assay [6]. For the same compound, the values for the GI50 in assay [7] and in assay [9] were 53.2 µM (inactive) and 24.2 µM (inactive), respectively.

As to `COc1ccc(/C(=N\NC(=O)C(N)=O)C(c2ccc(OC)cc2)C2(O)C(=O)Nc3c(Cl)cccc32)cc1` (configuration not stated), the GI50 in assay [1], in assay [3], in assay [4], in [8], in assay [6] and in assay [7] was > 100 µM (inactive) throughout. The GI50 in assay [9] is > 100 µM (inactive).

As for `COc1cc([C@@H]2c3cc4c(cc3[C@@H](NC(=O)c3cccc(C#N)c3)C3COC(=O)[C@@H]32)OCO4)cc(OC)c1O` (some centres not stated), the GI50 was 2 µM (inactive) in [1]; 0.0847 µM (active) in assay [2]; > 100 µM (inactive) in [3]; 1.56 µM (inactive) in assay [5]; 5.93 µM (inactive) in assay [8]; 9.33 µM (inactive) in assay [7].

With `NC(=S)N/N=C/c1nccc2ccccc12`, the GI50 is 1.12 µM (active) in assay [1]; 0.272 µM (active) in assay [2]; 1.21 µM (inactive) in assay [3]; 0.361 µM (active) in [4]; 1.96 µM (inactive) in [8]; 0.918 µM (active) in [6].

Regarding `Cc1ccc(Cn2c(C)nc3c2C(=O)c2ccccc2C3=O)cc1`, the GI50 in assay [1] is 1.22 µM (inactive); in assay [2], 1.07 µM (active); in assay [8] it was 1.72 µM (inactive); in [6], 7.05 µM (inactive); in assay [7], 20.3 µM (inactive); in assay [9] it was 15.1 µM (inactive).

On to `CC1=CP(=O)(OC(C)C)C=C(C)C1=C(Cl)Cl` (configuration not stated), for which the GI50 was > 100 µM (inactive) in assay [1]; 44.7 µM (inactive) in [2]; > 100 µM (inactive) in [3]; 50.1 µM (inactive) in assay [4]; 11.8 µM (inactive) in assay [5]; 30.7 µM (inactive) in assay [8]. Moreover, the GI50 in assay [6] was 38.4 µM (inactive); in [9], > 100 µM (inactive).

Consider `COc1cc(Nc2nc3ccccc3nc2-c2cccs2)cc(OC)c1OC`, for which the GI50 was 23.7 µM (inactive) in [1]; 29.2 µM (inactive) in assay [2]; > 100 µM (inactive) in assay [3]; 17.3 µM (inactive) in [8]; 40.5 µM (inactive) in [6]; 90.6 µM (inactive) in [7]. For the same compound, the GI50 in assay [9] is 19.2 µM (inactive).

Consider `COc1cc2c(c(O)c1C)C(=O)CC(c1ccccc1)O2` (configuration not stated), for which the GI50 in assay [1] was 55.2 µM (inactive); in [3], 61 µM (inactive); in [4] it was 50.7 µM (inactive); in assay [5], 41.4 µM (inactive); in assay [8], 56.2 µM (inactive); in assay [6], 45.8 µM (inactive). In addition, the GI50 in assay [7] was 55.7 µM (inactive).

`O=C1C(C2=[N+]([O-])c3ccccc3C2=O)=[N+]([O-])c2ccccc21`: the GI50 was 23.9 µM (inactive) in [1]; 30.9 µM (inactive) in assay [2]; 20.2 µM (inactive) in assay [3]; 17.9 µM (inactive) in assay [4]; 17 µM (inactive) in assay [8]; 24.3 µM (inactive) in assay [6]. Besides, the GI50 in assay [7] is 38.3 µM (inactive).

Consider `COc1ccccc1-n1c(C)nc2ccccc2c1=O`, for which the GI50 in assay [1], in assay [2], in assay [3], in assay [4], in assay [8] and in [6] was > 100 µM (inactive) each time. The GI50 in [7] is > 100 µM (inactive).

Values taken from ChEMBL document CHEMBL1201862, “PubChem BioAssay data set” (2004).
